Measurements taken from DBAASP.
In brackets after ≈: the same amount, converted by molar mass.

Assays:
Assay in all cases: ≥ marks a high value that may be exact or a test limit, other limits are often not marked, values filed in µg/mL are converted to µM
[1] = system: Escherichia coli ATCC 25922
Escherichia coli = system: Escherichia coli
[2] = system: Staphylococcus aureus ATCC 29213
[3] = system: Pseudomonas aeruginosa PAO1
[4] = system: Staphylococcus aureus ATCC 25923
Escherichia coli UB1005 = system: Escherichia coli UB1005
Staphylococcus aureus = system: Staphylococcus aureus
[5] = system: Candida albicans ATCC 90028
[6] = system: Pseudomonas aeruginosa ATCC 27853
[7] = system: Klebsiella pneumoniae ATCC 700603
[8] = system: Enterococcus faecalis ATCC 29212

| Compound | MIC [1] | MIC (Escherichia coli) | MIC [2] | MIC (Staphylococcus aureus) | further results |
| --- | --- | --- | --- | --- | --- |
| CC(C)C[C@H](NC(=O)[C@H](CCCCN)NC(=O)[C@H](CC(C)C)NC(=O)[C@H](CC(C)C)NC(=O)[C@H](CCCCN)NC(=O)[C@H](CCCCN)NC(=O)[C@@H]1CSSC[C@H](N)C(=O)N[C@@H](CCCCN)C(=O)N[C@@H](CCCCN)C(=O)N[C@@H](CC(C)C)C(=O)N[C@@H](CC(C)C)C(=O)N[C@@H](CCCCN)C(=O)N[C@@H](CC(C)C)C(=O)N1)C(=O)N[C@@H](C)C(=O)NCC(=O)O [CKKLLKLCKKLLKLAG] | 10 µM (≈ 18 µg/mL) | 40 µM (≈ 71.9 µg/mL) | > 40 µM | – | – |
| CC(C)C[C@H](NC(=O)[C@H](Cc1ccc(O)cc1)NC(=O)[C@@H]1CCCN1C(=O)[C@@H]1CCCN1C(=O)[C@H](CCCCN)NC(=O)[C@@H]1CCCN1C(=O)[C@@H](N)C(C)C)C(=O)N1CCC[C@H]1C(=O)N[C@@H](CCCN=C(N)N)C(=O)N1CCC[C@H]1C(=O)N[C@@H](CCCN=C(N)N)C(=O)N1CCC[C@H]1C(=O)N1CCC[C@H]1C(=O)N[C@@H](CCCN=C(N)N)C(=O)N[C@@H](CCCN=C(N)N)C(=O)N[C@@H](Cc1ccccc1)C(=O)N[C@@H](Cc1ccc(O)cc1)C(=O)N[C@@H](CC(N)=O)C(=O)N[C@@H](Cc1cnc[nH]1)C(N)=O [VPKPPYLPRPRPPRRFYNH] | – | – | – | – | MIC [3]: 107 µM (≈ 256 µg/mL); MIC [4]: 3.35 µM (≈ 8 µg/mL); MIC (Escherichia coli UB1005): 16.8 µM (≈ 40 µg/mL) |
| CC[C@H](C)[C@H](NC(=O)[C@H](CCCCN)NC(=O)[C@H](CC(C)C)NC(=O)[C@H](C)NC(=O)[C@H](CCCCN)NC(=O)CNC(=O)[C@H](CC(C)C)NC(=O)[C@H](CC(C)C)NC(=O)[C@H](CO)NC(=O)CNC(=O)[C@H](Cc1ccccc1)NC(=O)CN)C(=O)NCC(=O)N[C@H](C(=O)N[C@@H](CC(N)=O)C(=O)N[C@@H](CC(C)C)C(=O)N[C@@H](CC(C)C)C(N)=O)[C@@H](C)O [GFGSLLGKALKIGTNLL] | – | 25 µM (≈ 42.5 µg/mL) | – | 6 µM (≈ 10.2 µg/mL) | – |
| NCC(=O)N[C@@H](CCCN=C(N)N)C(=O)N[C@@H](CCCN=C(N)N)C(=O)N1CCC[C@H]1C(=O)N[C@@H](CCCN=C(N)N)C(=O)N1CCC[C@H]1C(=O)N[C@@H](CCCN=C(N)N)C(=O)N1CCC[C@H]1C(=O)N[C@@H](CCCN=C(N)N)C(=O)N1CCC[C@H]1C(=O)N[C@@H](Cc1c[nH]c2ccccc12)C(=O)N[C@@H](Cc1c[nH]c2ccccc12)C(=O)N[C@@H](Cc1c[nH]c2ccccc12)C(=O)N[C@@H](Cc1c[nH]c2ccccc12)C(N)=O [GRRPRPRPRPWWWW] | 20 µM (≈ 39.8 µg/mL) | – | 40 µM (≈ 79.5 µg/mL) | – | MIC [6]: 20 µM (≈ 39.8 µg/mL) |
| CC(C)C[C@H](NC(=O)[C@H](Cc1ccc(O)cc1)NC(=O)[C@@H]1CCCN1C(=O)[C@@H]1CCCN1C(=O)[C@H](CCCCN)NC(=O)[C@H](CC(=O)O)NC(=O)[C@@H](N)C(C)C)C(=O)N1CCC[C@H]1C(=O)N[C@@H](CCCN=C(N)N)C(=O)N1CCC[C@H]1C(=O)N[C@@H](CCCN=C(N)N)C(=O)N1CCC[C@H]1C(=O)N1CCC[C@H]1C(=O)N[C@@H](CCCN=C(N)N)C(=O)N[C@@H](CCCN=C(N)N)C(=O)N[C@@H](Cc1ccccc1)C(=O)N[C@@H](Cc1ccc(O)cc1)C(=O)N[C@@H](CC(N)=O)C(=O)N[C@@H](CCCN=C(N)N)C(N)=O [VDKPPYLPRPRPPRRFYNR] | – | – | – | – | MIC [3]: 106 µM (≈ 256 µg/mL); MIC [4]: 6.6 µM (≈ 16 µg/mL); MIC (Escherichia coli UB1005): 0.364 µM (≈ 0.883 µg/mL) |
| CC[C@H](C)[C@H](NC(=O)[C@@H](NC(=O)[C@@H]1CCCN1C(=O)[C@@H](NC(=O)[C@@H]1CCCN1C(=O)[C@H](CCCCN)NC(=O)[C@H](CCCCN)NC(=O)[C@H](CO)NC(=O)CN)C(C)C)[C@@H](C)CC)C(=O)N[C@@H](Cc1ccc(O)cc1)C(=O)N[C@H]1CSSC[C@@H](C(=O)N[C@@H](CCC(N)=O)C(=O)N[C@@H](CCCN=C(N)N)C(=O)N[C@@H](CCSC)C(=O)O)NC(=O)[C@H](CCCCN)NC(=O)[C@H](C)NC(=O)[C@H](CO)NC(=O)[C@H](CCCN=C(N)N)NC(=O)[C@H](CCCN=C(N)N)NC(=O)[C@H](CC(N)=O)NC1=O [GSKKPVPIIYCNRRSAKCQRM] | 26.3 µM (≈ 63.9 µg/mL) | – | – | – | MIC [7]: 26.3 µM (≈ 63.9 µg/mL) |
| CC[C@H](C)[C@H](NC(=O)[C@H](CCCCN)NC(=O)[C@H](CO)NC(=O)[C@H](Cc1c[nH]c2ccccc12)NC(=O)[C@H](CC(C)C)NC(=O)CN)C(=O)N[C@@H](CCCCN)C(=O)N[C@@H](CCC(=O)O)C(=O)N[C@@H](C)C(=O)N[C@@H](C)C(=O)N[C@@H](CCCCN)C(=O)N[C@H](C(=O)N[C@@H](C)C(=O)NCC(=O)N[C@@H](CC(C)C)C(=O)N[C@@H](CCSC)C(=O)N[C@@H](C)C(=O)N[C@@H](CCSC)C(=O)NCC(=O)N[C@@H](Cc1ccccc1)C(=O)N[C@H](C(=O)N[C@@H](CC(N)=O)C(=O)N[C@@H](CC(=O)O)C(=O)N[C@@H](CCSC)C(=O)N[C@H](C(=O)O)C(C)C)C(C)C)[C@@H](C)O [GLWSKIKEAAKTAGLMAMGFVNDMV] | 5.6 µM (≈ 14.9 µg/mL) | – | – | – | MIC [6]: 22 µM (≈ 58.7 µg/mL); MIC [4]: 22 µM (≈ 58.7 µg/mL); MIC [8]: 11 µM (≈ 29.4 µg/mL) |
| CC[C@H](C)[C@H](NC(=O)[C@H](CCCN=C(N)N)NC(=O)[C@H](CCC(N)=O)NC(=O)[C@@H](NC(=O)[C@@H](NC(=O)[C@H](CCCN=C(N)N)NC(=O)[C@H](CCCCN)NC(=O)[C@@H](N)Cc1ccccc1)[C@@H](C)CC)C(C)C)C(=O)N[C@@H](CCCCN)C(=O)N[C@@H](CC(=O)O)C(=O)NCC(=O)N[C@@H](CC(C)C)C(=O)N[C@@H](CCCN=C(N)N)C(=O)O [FKRIVQRIKDGLR] | 20 µM (≈ 32.6 µg/mL) | – | > 40 µM | – | – |
| CC[C@H](C)[C@H](NC(=O)CN)C(=O)NCC(=O)N[C@@H](CO)C(=O)N[C@@H](CC(C)C)C(=O)N[C@@H](CC(C)C)C(=O)N[C@@H](C)C(=O)N[C@@H](CCCCN)C(=O)N[C@@H](C)C(=O)N[C@@H](C)C(=O)N[C@@H](CCCCN)C(=O)N[C@@H](CC(C)C)C(=O)NCC(=O)N[C@@H](C)C(=O)N[C@@H](CC(N)=O)C(=O)N[C@@H](CC(C)C)C(=O)N[C@@H](CC(C)C)C(N)=O [GIGSLLAKAAKLGANLL] | – | 25 µM (≈ 40.2 µg/mL) | – | 12.5 µM (≈ 20.1 µg/mL) | – |
| CC[C@H](C)[C@H](N)C(=O)NCC(=O)N[C@@H](CCCCN)C(=O)N[C@@H](CC(C)C)C(=O)N[C@H](C(=O)N[C@@H](CCCCN)C(=O)N[C@@H](Cc1c[nH]c2ccccc12)C(=O)N[C@H](C(=O)N[C@H](C(=O)N[C@@H](CCCCN)C(=O)N[C@H](C(=O)N[C@H](C(=O)N[C@@H](CC(N)=O)C(=O)N[C@@H](CCCCN)C(=O)N[C@@H](Cc1ccccc1)C(=O)N[C@H](C(=O)N[C@@H](CCCCN)C(=O)N[C@@H](CCCCN)C(=O)O)[C@@H](C)O)C(C)C)[C@@H](C)O)[C@@H](C)CC)[C@@H](C)CC)C(C)C [IGKLVKWIIKTVNKFTKK] | – | 2.1 µM (≈ 4.5 µg/mL) | – | 3.7 µM (≈ 7.94 µg/mL) | – |

Further lines, with some results ahead:

| MIC [1] | MIC (Escherichia coli) | MIC [2] | MIC (Staphylococcus aureus) | Compound | further results |
| --- | --- | --- | --- | --- | --- |
| 5 µM (≈ 7.86 µg/mL) | – | 10 µM (≈ 15.7 µg/mL) | – | CC[C@H](C)[C@H](NC(=O)[C@H](CCCCN)NC(=O)[C@H](CC(=O)O)NC(=O)[C@H](Cc1ccccc1)NC(=O)[C@H](CC(C)C)NC(=O)[C@@H](N)CCCN=C(N)N)C(=O)N[C@@H](CCCN=C(N)N)C(=O)N[C@@H](CCC(N)=O)C(=O)N[C@H](C(=O)N[C@H](C(=O)N[C@@H](CCCN=C(N)N)C(=O)N[C@@H](CCCCN)C(=O)O)[C@@H](C)CC)C(C)C [RLFDKIRQVIRK] | MIC [5]: 5 µM (≈ 7.86 µg/mL); MIC [6]: 10 µM (≈ 15.7 µg/mL) |
| 10 µM (≈ 15 µg/mL) | – | 40 µM (≈ 59.8 µg/mL) | – | CC[C@H](C)[C@H](NC(=O)[C@H](CCCN=C(N)N)NC(=O)[C@H](CCC(N)=O)NC(=O)[C@@H](NC(=O)[C@@H](NC(=O)[C@H](CCCN=C(N)N)NC(=O)[C@@H](N)CCCCN)[C@@H](C)CC)C(C)C)C(=O)N[C@@H](CCCCN)C(=O)N[C@@H](CC(=O)O)C(=O)N[C@@H](C)C(=O)N[C@@H](CC(C)C)C(=O)N[C@@H](CCCN=C(N)N)C(=O)O [KRIVQRIKDALR] | MIC [5]: 20 µM (≈ 29.9 µg/mL); MIC [6]: 20 µM (≈ 29.9 µg/mL) |
| – | 25 µM (≈ 51.3 µg/mL) | – | > 100 µM | CC[C@H](C)[C@H](NC(=O)[C@H](CCCCN)NC(=O)[C@H](CCCCN)NC(=O)CNC(=O)[C@@H](NC(=O)CNC(=O)[C@H](Cc1ccccc1)NC(=O)[C@H](CC(N)=O)NC(=O)CNC(=O)[C@H](CO)NC(=O)[C@H](CC(C)C)NC(=O)[C@@H](NC(=O)[C@@H](N)CO)[C@@H](C)CC)C(C)C)C(=O)N[C@H](C(=O)N[C@H]1CSSC[C@@H](C(=O)O)NC(=O)[C@H](CC(C)C)NC(=O)CNC(=O)[C@H](CO)NC(=O)[C@H](CC(C)C)NC(=O)CNC1=O)C(C)C [SILSGNFGVGKKIVCGLSGLC] | – |
| 2.5 µM (≈ 4.59 µg/mL) | – | > 40 µM | – | CC(C)C[C@H](NC(=O)[C@H](CCCCN)NC(=O)[C@H](CC(C)C)NC(=O)[C@H](CC(C)C)NC(=O)[C@H](CCCCN)NC(=O)[C@H](CCCCN)NC(=O)[C@H](CCC(N)=O)NC(=O)[C@H](CC(C)C)NC(=O)[C@H](CCCCN)NC(=O)[C@H](CC(C)C)NC(=O)[C@H](CC(C)C)NC(=O)[C@H](CCCCN)NC(=O)[C@H](CCCCN)NC(=O)[C@@H](N)CC(C)C)C(=O)N[C@@H](C)C(=O)NCC(=O)O [LKKLLKLQKKLLKLAG] | – |
| – | 2.4 µM (≈ 5.6 µg/mL) | – | 4.8 µM (≈ 11.2 µg/mL) | CC[C@H](C)[C@H](NC(=O)[C@H](Cc1c[nH]c2ccccc12)NC(=O)[C@H](CCCCN)NC(=O)[C@@H](NC(=O)[C@H](CC(C)C)NC(=O)[C@H](CCCCN)NC(=O)CNC(=O)[C@@H](NC(=O)[C@@H](NC(=O)[C@@H](N)CO)[C@@H](C)O)[C@@H](C)CC)C(C)C)C(=O)N[C@H](C(=O)N[C@@H](CCCCN)C(=O)N[C@H](C(=O)N[C@H](C(=O)N[C@@H](CC(N)=O)C(=O)N[C@@H](CCCCN)C(=O)N[C@@H](Cc1ccccc1)C(=O)N[C@H](C(=O)N[C@@H](CCCCN)C(=O)N[C@@H](CCCCN)C(=O)O)[C@@H](C)O)C(C)C)[C@@H](C)O)[C@@H](C)CC [STIGKLVKWIIKTVNKFTKK] | – |
